Test results taken from article PMC6112376, “Comprehensive Analyses and Prioritization of Tox21 10K Chemicals Affecting Mitochondrial Function by in-Depth Mechanistic Studies” (Environmental Health Perspectives, 2018).
Structures can show the parent of a compound that is named as a salt. Where two headings read alike, the source gives them in different places.

Experiments:
rat primary hepatocytes [1] = test: MMP assay in rat primary hepatocytes; conditions: for IC50: Rattus norvegicus, Hepatocyte, read-out: MMP assays IC50 (µM) Rat Hepatocytes
HepG2 cells [2] = conditions: cited from earlier work
rat primary hepatocytes [3] = test system: rat primary hepatocytes
HepG2 cells [4] = test: cells; conditions: Homo sapiens; for IC50: HepG2, read-out: MMP assays IC50 (µM) HepG2; for Emax: HepG2, read-out: MMP assays efficacy (%) HepG2
[5] = read-out: MMP assays IC50 (µM) qHTS-HepG2
[6] = read-out: MMP assays IC50 (µM), qHTS-HepG2

SMILES | IC50 (rat primary hepatocytes [1]) | MMP assays efficacy (%) qHTS-HepG2 (HepG2 cells [2]) | IC50 (HepG2 cells [2]; [5]) | MMP assays efficacy (%) Rat Hepatocytes (rat primary hepatocytes [3]) | IC50 (HepG2 cells [4]) | Emax (HepG2 cells [4]) | IC50 (HepG2 cells [2]; [6]) | MMP assays IC50 (µM) Rat Hepatocytes (rat primary hepatocytes [1])
N=C(N)NN=C1C=CC(=NNC(N)=S)C=C1 [Ambazone] | 1.98 ± 2.22 µM | -98±7% | 5.6 ± 3.23 µM | -52±11% | 3.98 µM | 61% |  | 
Nc1ccc(/N=N/c2ccc(N)cc2)cc1 [4,4'-Diaminoazobenzene] | 26.6 ± 12.5 µM | -86±5% | 10.5 ± 3.59 µM | -50±40% | 5.62 µM | 87% |  | 
O=C(Nc1cccc(Cl)c1)OCC#CCCl [Barban] | 36 ± 7.53 µM | -116±9% | 22.5 ± 4.1 µM | -68±37% | 25.1 µM | 87% |  | 
O=S(=O)(c1ccc(Cl)cc1)c1cc(Cl)c(Cl)cc1Cl [Tetradifon] | 12.1 ± 6.57 µM | -98±2% |  | -77±25% | 17.8 µM | 96% | 15.3 ± 7.43 µM | 
C[C@]12O[C@H](C[C@]1(O)CO)n1c3ccccc3c3c4c(c5c6ccccc6n2c5c31)CNC4=O [lestaurtinib] | 12.8 ± 2.67 µM | -84±9% |  | -92±26% | 5.62 µM | 100% | 4.8 ± 0.97 µM | 
Cc1cc(NC(=O)C2=C(O)c3ccccc3S(=O)(=O)N2C)no1 [Isoxicam] | 4.92 ± 0.8 µM | -66±27% |  | -60±55% | 2.75 µM | 38% | 5.18 ± 2.9 µM | 
CC(=O)O[C@H]1C[C@H](O[C@H]2[C@@H](O)C[C@H](O[C@H]3[C@@H](O)C[C@H](O[C@H]4CC[C@@]5(C)[C@H](CC[C@@H]6[C@@H]5C[C@@H](O)[C@]5(C)[C@@H](C7=CC(=O)OC7)CC[C@]65O)C4)O[C@@H]3C)O[C@@H]2C)O[C@H](C)[C@H]1O[C@@H]1O[C@H](CO)[C@@H](O)[C@H](O)[C@H]1O [Lanatoside C] |  | -51±10% |  | inactive | 0.31 µM | 92% | 0.78 ± 0.14 µM | inactive
O=S1(=O)OCC2C(CO1)C1(Cl)C(Cl)=C(Cl)C2(Cl)C1(Cl)Cl (centres unmarked) [Endosulfan sulfate] | 25.8 ± 10.1 µM | -123±10% | 16 ± 2.05 µM | -80+6% | 17.8 µM | 103% |  | 
Oc1ccc(/C=C/c2cc(O)cc(O)c2)cc1 [Resveratrol] |  | -66±11% |  | inactive | 3.71 µM | 33% | 1.6 ± 0.43 µM | inactive
Nc1cccc2c(N)cccc12 [1,5-Naphthalenediamine] |  | -76±19% | 17 ± 19.6 µM | inactive | 3.16 µM | 101% |  | inactive
Cc1cc(O)c2c3c4c(cc(O)c13)C(C)(C)C(=O)c1c(O)cc(O)c(c1-4)C2=O [Geliomycin] | 0.55 ± 0.31 µM | -120±11% |  | -101±18% | 0.19 µM | 94% | 0.52 ± 0.04 µM | 
O=[N+]([O-])c1ccc2c(c1)Cc1ccccc1-2 [Compound 2-Nitrofluorene] | 38.1 ± 9.22 µM | -53±5% | 12.2 ± 0.86 µM | -57±0% | 50.1 µM | 41% |  | 
Oc1ccccc1-c1ccccc1 [Compound 2-Phenylphenol] | 53.2 ± 4.32 µM | -97±7% | 17.9 ± 1.41 µM | -75±20% | 28.2 µM | 108% |  | 
CC(=O)Nc1ccc2c(c1)Cc1ccccc1-2 [Compound 2-Acetylaminofluorene] |  | -63±5% | 36.3 ± 10.5 µM | inactive | 31.6 µM | 46% |  | inactive
C#C[C@]1(OC(C)=O)CC[C@H]2[C@@H]3CCC4=C[C@@H](OC(C)=O)CC[C@@H]4[C@H]3CC[C@@]21C [Ethynodiol diacetate] |  | -62±16% | 15.4 ± 0.84 µM | inactive | 21.8 µM | 98% |  | inactive
Oc1c(Br)c(Br)c(Br)c(Br)c1Br [Pentabromophenol] | 4.98 ± 2.48 µM | -104±8% |  | -93±13% | 7.94 µM | 106% | 3.46 ± 0.99 µM | 
C(=NC1CCCCC1)=NC1CCCCC1 [Dicyclohexylcarbodiimide] |  | -69±18% | 0.3 ± 0.2 µM | inactive | 0.0178 µM | 39% |  | inactive

SMILES | IC50 (rat primary hepatocytes [1]) | MMP assays efficacy (%) qHTS-HepG2 (HepG2 cells [2]) | IC50 (HepG2 cells [2]; [5]) | MMP assays efficacy (%) Rat Hepatocytes (rat primary hepatocytes [3]) | IC50 (HepG2 cells [4]) | Emax (HepG2 cells [4]) | IC50 (HepG2 cells [2]; [6]) | MMP assays IC50 (µM) Rat Hepatocytes (rat primary hepatocytes [1])
N#CC(C#N)=NNc1cccc(Cl)c1 [Carbonyl cyanide chlorophenylhydrazone] |  |  | 0.15 ± 0.04 µM | inactive | 0.25 µM | 96% |  | inactive
O=P(Oc1ccccc1)(Oc1ccccc1)Oc1ccccc1 [Triphenyl phosphate] | 28.9 ± 9.26 µM | -98±14% |  | -56±38% | 1.26 µM | 48% | 1.38 ± 1.48 µM | 
Oc1c(Cl)cc(Cl)c2cccnc12 [CHLOROXINE] |  | -75±22% | 10.6 ± 1.22 µM | inactive | 9.75 µM | 99% |  | inactive
O=C(O)Cc1sc(-c2ccccc2)nc1-c1ccc(Cl)cc1 [Fentiazac] | 9.49 ± 7.98 µM | -91±18% | 27.4 ± 2.92 µM | -88±22% | 19.4 µM | 57% |  | 
CC(=O)CC(c1ccccc1)c1c(O)c2ccccc2oc1=O (centres unmarked) [Sodium warfarin] | 35.5 µM | -95±22% |  | -77±32% | 35.5 µM | 65% | 38.6 ± 12.8 µM | 
O=C(NC(=O)c1c(F)cccc1F)Nc1cc(Cl)c(Oc2ncc(C(F)(F)F)cc2Cl)c(Cl)c1 [Chlorfluazuron] | 29.3 ± 1.99 µM | -114±19% | 8.93 ± 4.57 µM | -79±42% | 12.6 µM | 98% |  | 
CCOC(=O)C1(c2ccccc2)CCN(CCC(C#N)(c2ccccc2)c2ccccc2)CC1 [Diphenoxylate hydrochloride] | 19.4 µM | -56±8% | 20.7 ± 1.19 µM | -81±36% | 17.3 µM | 71% |  | 
Oc1ccc2ccccc2c1 [Compound 2-Naphthalenol] | 42.2 ± 19.8 µM | -107±7% | 50.1 ± 16 µM | -56±17% | 35.5 µM | 81% |  | 
Oc1ccc(Cl)c(Cl)c1Cl [2,3,4-Trichlorophenol] | 41.8 ± 14.4 µM | -101±8% | 5.23 ± 1.52 µM | -59±36% | 7.94 µM | 101% |  | 
Cc1ccccc1C(=O)Nc1ccc(C(=O)N2CCCC(O)c3cc(Cl)ccc32)c(C)c1 (centres unmarked) [Tolvaptan] | 17.4 ± 2 µM | -65±11% |  | -67±60% | 19.4 µM | 50% | 17.4 ± 8.01 µM | 
CN(C)c1ccc(N)cc1 [N,N-Dimethyl-p-phenylenediamine] | 21.7 ± 15.7 µM | -100±15% |  | -69±29% | 7.08 µM | 109% | 9.1 ± 0.59 µM | 
CCCN(CCC)c1c([N+](=O)[O-])cc(C(F)(F)F)c(N)c1[N+](=O)[O-] [Prodiamine] | 25.4 ± 11.7 µM | -85±11% |  | -95±8% | 8.91 µM | 93% | 4.84 ± 0.56 µM | 
O=Nc1ccc(O)cc1 [Compound 4-Nitrosophenol] |  | -87±9% | 4.71 ± 2.31 µM | inactive | 15.8 µM | 61% |  | inactive
CS(=O)(=O)Nc1ccc([N+](=O)[O-])cc1Oc1ccccc1 [Nimesulide] | 2.74 ± 0.35 µM | -101±6% |  | -117±42% | 4.16 µM | 120% | 3.87 ± 0.23 µM | 
CC(=O)c1cc2c(cc1C)C(C)(C)C(C)CC2(C)C (centres unmarked) |  | -74±22% | 30.6 ± 18.9 µM | inactive | 28.2 µM | 73% |  | inactive
Oc1c(Cl)cc(Cl)cc1Sc1cc(Cl)cc(Cl)c1O [Sodium bithionolate] |  | -123±11% |  | inactive | 0.89 µM | 116% | 0.91 ± 0.78 µM | inactive
COP(=S)(OC)Oc1cc(Cl)c(Cl)cc1Cl [Fenchlorphos] | 20.6 ± 1.68 µM | -97±9% | 13.6 ± 2.52 µM | -96±29% | 6.15 µM | 99% |  | 
